Values after ≈ are worked out from the molar mass of the structure shown.
What was measured:
[1] = tested on: Bovine viral diarrhea virus 1; experiment: Antiviral activity against Bovine viral diarrhea virus infected in human HuH7 cells assessed as inhibition of viral replication by luciferase reporter gene assay; format: functional, organism-based; settings: Bovine viral diarrhea virus isolates and strains, Huh-7
[2] = Cytotoxicity against human HuH7 cells after 72 hrs by Alamar blue assay; format: cell-based, Huh-7
Hepatitis C virus = experiment: Antiviral activity against HCV1b harboring NS5B infected in human HuH7 cells assessed as inhibition of viral replication after 72 hrs by FRET assay; format: functional, organism-based, Hepacivirus hominis; settings: genotype 1b, Huh-7, 72 h
[3] = Solubility of the compound in phosphate buffer at pH 6.5; format: physicochemical

| Compound | EC50 [1] [µM] | CC50 at 72 h [2] [µM] | EC50 (Hepatitis C virus) [nM] | solubility [3] [µg/mL] |
| --- | --- | --- | --- | --- |
| O=C(Nc1ccc(Cc2ccc(NC(=O)[C@@H]3CCCN3C(=O)Cc3ccccc3)cc2)cc1)[C@@H]1CCCN1C(=O)Cc1ccccc1 | > 10 | > 10 | 1700 | – |
| O=C(Nc1ccc(-c2nn[nH]c2-c2ccc(NC(=O)[C@@H]3CCCN3C(=O)Cc3ccccc3)cc2)cc1)[C@@H]1CCCN1C(=O)Cc1ccccc1 | > 10 | > 10 | 8.18 | – |
| CN1Cc2cc(NC(=O)[C@@H]3CCCN3C(=O)Cc3ccccc3)ccc2CC1c1ccc(NC(=O)[C@@H]2CCCN2C(=O)Cc2ccccc2)cc1 (mixture of isomers) | > 10 | > 10 | 13.9 | 135 |
| O=C(Nc1ccc(-c2ccc(-c3ccc(NC(=O)[C@@H]4CCCN4C(=O)Cc4ccccc4)cc3)s2)cc1)[C@@H]1CCCN1C(=O)Cc1ccccc1 | > 10 | > 10 | 14.7 | – |
| O=C(Nc1ccc([C@H]2C[C@H]2c2ccc(NC(=O)[C@@H]3CCCN3C(=O)Cc3ccccc3)cc2)cc1)[C@@H]1CCCN1C(=O)Cc1ccccc1 | > 10 | > 10 | 796 | – |
| O=C(Nc1ccc(-c2ccc(NC(=O)[C@@H]3CCCN3C(=O)Cc3ccccc3)cc2)cc1)[C@@H]1CCCN1C(=O)Cc1ccccc1 | – | – | 205 | – |
| O=C(Nc1ccc(-c2nc3ccc(NC(=O)[C@@H]4CCCN4C(=O)Cc4ccccc4)cc3[nH]2)cc1)[C@@H]1CCCN1C(=O)Cc1ccccc1 | > 10 | > 10 | 1050 | – |
| O=C(Nc1ccc(-c2c[nH]nc2-c2ccc(NC(=O)[C@@H]3CCCN3C(=O)Cc3ccccc3)cc2)cc1)[C@@H]1CCCN1C(=O)Cc1ccccc1 | > 10 | > 10 | 4.57 | – |
| O=C(Nc1ccc(-c2coc(-c3ccc(NC(=O)[C@@H]4CCCN4C(=O)Cc4ccccc4)cc3)n2)cc1)[C@@H]1CCCN1C(=O)Cc1ccccc1 | > 10 | > 10 | 1.32 | – |
| O=C(Nc1ccc(Oc2ccc(NC(=O)[C@@H]3CCCN3C(=O)Cc3ccccc3)cc2)cc1)[C@@H]1CCCN1C(=O)Cc1ccccc1 | > 10 | > 10 | 1990 | – |
| O=C(Nc1ccc([C@H]2C[C@@H]2c2ccc(NC(=O)[C@@H]3CCCN3C(=O)Cc3ccccc3)cc2)cc1)[C@@H]1CCCN1C(=O)Cc1ccccc1 | > 10 | > 10 | 5.66 | 3 (≈ 4.58 µM) |
| O=C(Nc1ccc(C#Cc2ccc(NC(=O)[C@@H]3CCCN3C(=O)Cc3ccccc3)cc2)cc1)[C@@H]1CCCN1C(=O)Cc1ccccc1 | > 10 | > 10 | 6.24 | – |
| Cn1nc(-c2ccc(NC(=O)[C@@H]3CCCN3C(=O)Cc3ccccc3)cc2)cc1-c1ccc(NC(=O)[C@@H]2CCCN2C(=O)Cc2ccccc2)cc1 | > 10 | > 10 | 181 | – |
| O=C(Nc1ccc(-c2cc(-c3ccc(NC(=O)[C@@H]4CCCN4C(=O)Cc4ccccc4)cc3)[nH]n2)cc1)[C@@H]1CCCN1C(=O)Cc1ccccc1 | > 10 | > 10 | 0.71 | – |
| O=C(Nc1ccc(/C=C\c2ccc(NC(=O)[C@@H]3CCCN3C(=O)Cc3ccccc3)cc2)cc1)[C@@H]1CCCN1C(=O)Cc1ccccc1 | > 10 | > 10 | 12.4 | – |
| O=C(Nc1ccc(/C=C/c2ccc(NC(=O)[C@@H]3CCCN3C(=O)Cc3ccccc3)cc2)cc1)[C@@H]1CCCN1C(=O)Cc1ccccc1 | > 10 | > 10 | 0.09 | – |
| O=C(Nc1ccc(-c2nc[nH]c2-c2ccc(NC(=O)[C@@H]3CCCN3C(=O)Cc3ccccc3)cc2)cc1)[C@@H]1CCCN1C(=O)Cc1ccccc1 | > 10 | > 10 | 20.9 | – |
| O=C(Nc1ccc(CCc2ccc(NC(=O)[C@@H]3CCCN3C(=O)Cc3ccccc3)cc2)cc1)[C@@H]1CCCN1C(=O)Cc1ccccc1 | > 10 | > 10 | 6.01 | – |
| CN(C(=O)c1ccc(NC(=O)[C@@H]2CCCN2C(=O)Cc2ccccc2)cc1)c1ccc(NC(=O)[C@@H]2CCCN2C(=O)Cc2ccccc2)cc1 | > 10 | > 10 | 6250 | – |
| O=C(Nc1ccc(COc2ccc(NC(=O)[C@@H]3CCCN3C(=O)Cc3ccccc3)cc2)cc1)[C@@H]1CCCN1C(=O)Cc1ccccc1 | > 10 | > 10 | 97.8 | – |
| O=C(Nc1ccc(-c2nnc(-c3ccc(NC(=O)[C@@H]4CCCN4C(=O)Cc4ccccc4)cc3)o2)cc1)[C@@H]1CCCN1C(=O)Cc1ccccc1 | > 10 | > 10 | 149 | – |
| O=C(Nc1cccc(CN2CCc3ccc(NC(=O)[C@@H]4CCCN4C(=O)Cc4ccccc4)cc3C2)c1)[C@@H]1CCCN1C(=O)Cc1ccccc1 | > 10 | > 10 | 3890 | – |
| O=C(Nc1ccc(CN2CCc3cc(NC(=O)[C@@H]4CCCN4C(=O)Cc4ccccc4)ccc3C2)cc1)[C@@H]1CCCN1C(=O)Cc1ccccc1 | > 10 | > 10 | 159 | – |
| O=C(Nc1ccc(-c2c[nH]c(-c3ccc(NC(=O)[C@@H]4CCCN4C(=O)Cc4ccccc4)cc3)n2)cc1)[C@@H]1CCCN1C(=O)Cc1ccccc1 | > 10 | > 10 | 67.2 | – |
| CC(C)(c1ccc(NC(=O)[C@@H]2CCCN2C(=O)Cc2ccccc2)cc1)c1ccc(NC(=O)[C@@H]2CCCN2C(=O)Cc2ccccc2)cc1 | > 10 | > 10 | 638 | – |
| O=C(c1ccc(NC(=O)[C@@H]2CCCN2C(=O)Cc2ccccc2)cc1)c1ccc(NC(=O)[C@@H]2CCCN2C(=O)Cc2ccccc2)cc1 | > 10 | > 10 | 3950 | – |
| O=C(Nc1ccc(CCCc2ccc(NC(=O)[C@@H]3CCCN3C(=O)Cc3ccccc3)cc2)cc1)[C@@H]1CCCN1C(=O)Cc1ccccc1 | > 10 | > 10 | 36.1 | – |
| O=C(Nc1ccc(N2CCc3cc(NC(=O)[C@@H]4CCCN4C(=O)Cc4ccccc4)ccc3C2)nc1)[C@@H]1CCCN1C(=O)Cc1ccccc1 | > 10 | > 10 | 1.74 | – |
| O=C(Nc1ccc(NC(=O)[C@@H]2CCCN2C(=O)Cc2ccccc2)cc1)c1ccc(NC(=O)[C@@H]2CCCN2C(=O)Cc2ccccc2)cc1 | > 10 | > 10 | 11 | – |
| O=C(Nc1ccc(-c2cnc(-c3ccc(NC(=O)[C@@H]4CCCN4C(=O)Cc4ccccc4)cc3)o2)cc1)[C@@H]1CCCN1C(=O)Cc1ccccc1 | > 10 | > 10 | 2.38 | – |

Source: ChEMBL document CHEMBL2311483, “HCV NS5A replication complex inhibitors. Part 3: discovery of potent analogs with distinct core topologies” (Bioorg Med Chem Lett, 2013)
